Test [1] is described as follows: Luminescence Cell-Based Dose Response to Identify Activators of 5'UTR Stem-Loop Driven Prion Protein mRNA Translation in H4-C Neuroglioblastoma Cells. [Related pubchem assays: 1829 (Project Summary), 1814 (Primary HTS)]. In kind it is functional.
The nature of test [2]: Luminescence Cell-Based Dose Confirmation HTS to Identify Activators of 5'UTR Stem-Loop Driven Alpha-Synuclein mRNA Translation in H4 Neuroglioblastoma Cells. [Related pubchem assays: 1829 (Project Summary), 1814 (Primary HTS)]. In kind it is functional.
A short description of test [3]: Luminescence Cell-Based Dose Response HTS to Identify Activators of Luciferase Translation or Activity in H4 […] Cells. [Related pubchem assays: 1829 (Project Summary), 1814 (Primary HTS)]. The class given is functional.
In test [4] the test system is H4. Description: Luminescence Cell-Based Dose Response HTS to Identify Activators of 5'UTR Stem-Loop Driven Prion Protein mRNA Translation in H4 Neuroglioblastoma Cells. [Related pubchem assays: 1829 (Project Summary), 1814 (Primary HTS)]. In kind it is functional. The conditions noted are these: Homo sapiens.
Test [5] can be described thus: Luminescence Cell-Based Dose Response to Identify Activators of Luciferase Translation or Activity in H4-C Neuroglioblastoma Cells. [Related pubchem assays: 1829 (Project Summary), 1814 (Primary HTS)]. The class given is functional.
A short description of test [6]: Luminescence Cell-Based Dose Confirmation to Identify Activators of 5'UTR Stem-Loop Driven Alpha-Synuclein mRNA Translation in H4 Neuroglioblastoma Cells. [Related pubchem assays: 1829 (Project Summary), 1814 (Primary HTS)]. In kind it is functional.
The target in test [7] is Aspartyl aminopeptidase (Plasmodium falciparum 3D7, UniProt Q8I2J3).
The target of test [8] is Procathepsin L (Homo sapiens, UniProt P07711).
Sequence of Procathepsin L (P07711 whole entry): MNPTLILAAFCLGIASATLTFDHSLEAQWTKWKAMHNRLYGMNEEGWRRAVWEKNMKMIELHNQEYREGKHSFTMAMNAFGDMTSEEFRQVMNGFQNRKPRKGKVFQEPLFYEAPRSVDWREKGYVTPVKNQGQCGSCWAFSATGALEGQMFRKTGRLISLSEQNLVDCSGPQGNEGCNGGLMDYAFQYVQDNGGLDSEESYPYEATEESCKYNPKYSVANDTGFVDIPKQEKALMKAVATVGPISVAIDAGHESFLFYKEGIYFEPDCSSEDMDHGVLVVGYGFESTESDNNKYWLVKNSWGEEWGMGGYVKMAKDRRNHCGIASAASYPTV
The subject of test [9] is Streptococcus sp. 'group A'. Nature of the test: growth inhibition of control SK(-) GAS strain, dose response, counter-screen for streptokinase expression inhibitor project, luminescence, kanamycin, BacTiterGlo, confirmation (AID 1900). In kind it is functional, organism-based. For orientation: Counterscreens check selectivity or assay interference.
Test [10] addresses T1, Heat shock factor protein 1 (Mus musculus, UniProt P38532).
T1 sequence (P38532 whole entry): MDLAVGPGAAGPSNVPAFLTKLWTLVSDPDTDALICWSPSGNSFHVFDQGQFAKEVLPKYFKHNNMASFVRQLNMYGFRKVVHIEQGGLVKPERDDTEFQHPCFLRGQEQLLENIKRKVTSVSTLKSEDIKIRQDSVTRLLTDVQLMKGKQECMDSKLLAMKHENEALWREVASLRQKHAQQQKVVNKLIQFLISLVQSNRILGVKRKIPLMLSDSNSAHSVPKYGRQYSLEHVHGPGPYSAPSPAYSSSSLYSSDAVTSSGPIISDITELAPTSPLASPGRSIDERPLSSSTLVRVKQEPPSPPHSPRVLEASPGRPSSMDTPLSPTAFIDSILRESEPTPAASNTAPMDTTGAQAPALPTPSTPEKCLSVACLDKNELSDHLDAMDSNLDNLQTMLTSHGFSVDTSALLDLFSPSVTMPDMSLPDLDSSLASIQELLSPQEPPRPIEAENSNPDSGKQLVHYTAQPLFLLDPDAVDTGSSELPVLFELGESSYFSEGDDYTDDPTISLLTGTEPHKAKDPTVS
Description: inhibition of MG132-induced HSE-luciferase signal, confirmation, cell-based, NIH3T3, luminescence, dose retest (AID 2382).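 Note: NIH3T3 fibroblasts with HSF1-driven luciferase reporter stressed by proteasome inhibitor MG132; luminescence from HSF1-driven luciferase expression after 8 hours of MG132 stress.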 In kind it is functional.

For test [11], the system named is Streptococcus. Description: Luminescence Microorganism-Based Dose Response Follow up to Identify Compounds Cytotoxic to Streptococcus. [Related pubchem assays: 1677 (Project Summary), 1915, 1914, 1902 (Retest at Dose), 1900 (Counter Screen), 1662 (Primary HTS)]. The class given is functional, organism-based.
The target in test [12] is T2, Streptokinase A (Streptococcus pyogenes serotype M1, UniProt P10520).
T2 sequence (P10520 whole entry): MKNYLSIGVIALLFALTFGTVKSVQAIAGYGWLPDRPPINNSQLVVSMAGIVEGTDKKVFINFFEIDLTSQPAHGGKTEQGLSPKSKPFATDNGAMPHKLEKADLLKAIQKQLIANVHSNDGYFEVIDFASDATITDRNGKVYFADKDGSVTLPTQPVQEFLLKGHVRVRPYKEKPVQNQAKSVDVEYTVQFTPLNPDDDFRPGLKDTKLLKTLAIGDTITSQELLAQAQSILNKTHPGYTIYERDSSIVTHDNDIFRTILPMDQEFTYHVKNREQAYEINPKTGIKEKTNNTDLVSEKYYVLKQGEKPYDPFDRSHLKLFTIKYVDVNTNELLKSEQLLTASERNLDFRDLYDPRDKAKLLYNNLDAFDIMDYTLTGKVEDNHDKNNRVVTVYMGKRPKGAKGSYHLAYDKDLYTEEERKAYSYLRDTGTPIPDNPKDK
Nature of the test: S. pyogenes streptokinase expression inhibitors, potency, dose response, plasminogen activation absorbance, OD405 (AID 1914).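 Note: secreted streptokinase activity via plasminogen activation per viability signal from cell pellet.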 In kind it is functional, Streptococcus pyogenes M1 GAS.

For test [13], the system named is Streptococcus. Nature of the test: Group A Streptococcus viability loss, dose response, counter-screen for streptokinase expression inhibitor project, luminescence, BacTiterGlo (AID 1915).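 Note: potency for reduction of bacterial viability or growth.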 The class given is functional, organism-based.
For test [14], the target named is Cytochrome P450 2D6 (Homo sapiens, UniProt P10635). Nature of the test: qHTS Assay for Inhibitors and Substrates of Cytochrome P450 2D6. [Related pubchem assays: 410 ]. In kind it is ADME. The conditions noted are these: read-out: Potency. In general terms: qHTS replaces the single test concentration by a dilution series.
Sequence of Cytochrome P450 2D6 (P10635 whole entry): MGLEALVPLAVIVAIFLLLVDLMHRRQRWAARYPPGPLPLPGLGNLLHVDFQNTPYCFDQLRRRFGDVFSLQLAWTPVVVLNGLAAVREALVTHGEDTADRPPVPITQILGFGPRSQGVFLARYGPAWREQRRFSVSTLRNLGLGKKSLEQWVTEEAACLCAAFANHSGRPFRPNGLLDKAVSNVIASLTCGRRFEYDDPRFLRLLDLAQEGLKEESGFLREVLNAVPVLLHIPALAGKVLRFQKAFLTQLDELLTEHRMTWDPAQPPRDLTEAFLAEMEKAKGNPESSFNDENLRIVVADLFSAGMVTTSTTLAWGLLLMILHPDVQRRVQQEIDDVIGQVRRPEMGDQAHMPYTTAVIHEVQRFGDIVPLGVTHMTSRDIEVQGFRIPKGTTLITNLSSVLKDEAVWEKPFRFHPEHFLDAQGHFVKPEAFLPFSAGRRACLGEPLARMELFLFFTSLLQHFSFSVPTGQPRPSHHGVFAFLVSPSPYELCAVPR
Test [15] addresses T3, Peroxisome proliferator-activated receptor gamma/Nuclear receptor corepressor 2 (Homo sapiens, UniProt P37231+Q9Y618). Nature of the test: Counterscreen for NR2E3 inverse agonists: TR-FRET-based biochemical high throughput dose response assay to identify inverse agonists of the interaction between peroxisome proliferator-activated receptor gamma (PPARg) and nuclear receptor co-repressor 2 (NCOR2). In kind it is functional.

Test [16] addresses T4, Photoreceptor-specific nuclear receptor (Homo sapiens, UniProt Q9Y5X4). Description: NR2E3 inverse agonists, dose response, biochemical, TR-FRET (AID 463256). In kind it is functional.
Test [17] deals with T4, Photoreceptor-specific nuclear receptor. The class given is functional.
Test [18] concerns the target Large T antigen (Simian virus 40, UniProt P03070). In kind it is functional, Betapolyomavirus macacae.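 Note: Confirmatory-stage PubChem screen for compounds that inhibit SV40 T antigen.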
Test [19] concerns the target T3, Peroxisome proliferator-activated receptor gamma/Nuclear receptor corepressor 2. In kind it is functional.
Test [20] concerns the target Induced myeloid leukemia cell differentiation protein Mcl-1 (Homo sapiens, UniProt Q07820). In kind it is functional.
The target of test [21] is Benomyl/methotrexate resistance protein (Candida albicans, UniProt P28873). Nature of the test: CaMdr1 efflux pump inhibitor potency, dose response, singleplex, Cherry Pick1 hits (AID 588608). The class given is functional.
For test [22], the target named is T5, Calpain-2 catalytic subunit (Sus scrofa, UniProt P43367).
T5 sequence (P43367 whole entry): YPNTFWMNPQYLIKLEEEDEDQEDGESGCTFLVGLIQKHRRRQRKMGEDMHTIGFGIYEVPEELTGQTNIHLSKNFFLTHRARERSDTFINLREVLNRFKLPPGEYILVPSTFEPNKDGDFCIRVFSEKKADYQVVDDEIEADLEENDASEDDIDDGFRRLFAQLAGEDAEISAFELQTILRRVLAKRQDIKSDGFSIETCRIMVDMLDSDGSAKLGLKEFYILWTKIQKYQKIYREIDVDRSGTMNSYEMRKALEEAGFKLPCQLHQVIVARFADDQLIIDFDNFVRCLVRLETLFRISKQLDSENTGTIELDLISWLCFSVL
Description: pig calpain II inhibitor potency, dose response, biochemical, fluorogenic peptide substrate (AID 1420). The class given is functional.

Test [23] has as its target Ephrin type-A receptor 4 (Mus musculus, UniProt Q03137). Nature of the test: inhibitors of EphA4 binding to KYL peptide, primary screen, biochemical, colorimetric, mouse EphA4 (AID 689). The class given is functional.
Test [24] can be described thus: Vero cell cytotoxicity, dose response, cytotoxicity control for Vif-APOBEC3G degradation inhibitor project, Vero cells (AID 1117358). The class given is functional. The conditions noted are these: Human immunodeficiency virus 1, Vero.
In test [25] the target is T6, NADPH oxidase 1 (Homo sapiens, UniProt Q9Y5S8).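 Note: Cell-based assay with luminescence read-out, IC50 derived from inhibitor dose-response curves; intracellular ROS from endogenous NOX1 in intact HT29 colon cancer cells; potency of inhibitors that lower the ROS luminescence signal.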
T6 sequence (Q9Y5S8 whole entry): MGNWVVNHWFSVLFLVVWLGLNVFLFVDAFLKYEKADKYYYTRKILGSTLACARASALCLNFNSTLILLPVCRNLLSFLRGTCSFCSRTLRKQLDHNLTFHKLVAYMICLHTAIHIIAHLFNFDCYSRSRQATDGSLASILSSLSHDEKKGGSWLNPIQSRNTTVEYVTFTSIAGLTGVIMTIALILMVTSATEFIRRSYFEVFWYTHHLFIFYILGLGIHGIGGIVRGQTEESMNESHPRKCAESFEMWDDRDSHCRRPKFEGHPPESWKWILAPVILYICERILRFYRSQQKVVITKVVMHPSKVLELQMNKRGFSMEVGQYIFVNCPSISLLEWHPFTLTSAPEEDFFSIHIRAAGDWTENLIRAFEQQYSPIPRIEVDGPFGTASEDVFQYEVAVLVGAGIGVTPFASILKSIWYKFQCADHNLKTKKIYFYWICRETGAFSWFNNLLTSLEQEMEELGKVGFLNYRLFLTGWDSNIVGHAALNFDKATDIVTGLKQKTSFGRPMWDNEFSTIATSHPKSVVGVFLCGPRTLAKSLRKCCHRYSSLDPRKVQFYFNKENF
The class given is functional, cell-based.

In test [26] the target is Cytochrome P450 3A4 (Homo sapiens, UniProt P08684). The conditions noted are these: Potency.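 Note: confirmatory qHTS run detecting inhibitors and substrates of CYP3A4.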
Test [27] concerns the target Cytochrome P450 2C9 (Homo sapiens, UniProt P11712). Particulars: Potency.

Activity calls are given as the source filed them.

The source of these data is ChEMBL document CHEMBL1201862, “PubChem BioAssay data set” (2004).

The EC50 is the concentration at which the effect is half-maximal. For orientation: IC50 means the concentration needed to halve the response being measured. The CC50 is the concentration giving 50% cytotoxicity.

T4 sequence (Q9Y5X4 whole entry): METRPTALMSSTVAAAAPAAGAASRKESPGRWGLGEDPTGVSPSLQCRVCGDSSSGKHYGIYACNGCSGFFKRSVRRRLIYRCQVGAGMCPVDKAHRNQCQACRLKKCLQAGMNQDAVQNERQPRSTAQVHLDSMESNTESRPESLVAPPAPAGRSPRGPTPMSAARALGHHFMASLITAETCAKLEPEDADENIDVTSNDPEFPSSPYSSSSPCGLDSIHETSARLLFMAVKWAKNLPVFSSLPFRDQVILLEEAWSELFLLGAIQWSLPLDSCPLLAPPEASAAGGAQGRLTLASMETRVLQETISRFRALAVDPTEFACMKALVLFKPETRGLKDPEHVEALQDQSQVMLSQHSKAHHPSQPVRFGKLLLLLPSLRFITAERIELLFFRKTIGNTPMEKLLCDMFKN
T3 sequence (P37231 whole entry): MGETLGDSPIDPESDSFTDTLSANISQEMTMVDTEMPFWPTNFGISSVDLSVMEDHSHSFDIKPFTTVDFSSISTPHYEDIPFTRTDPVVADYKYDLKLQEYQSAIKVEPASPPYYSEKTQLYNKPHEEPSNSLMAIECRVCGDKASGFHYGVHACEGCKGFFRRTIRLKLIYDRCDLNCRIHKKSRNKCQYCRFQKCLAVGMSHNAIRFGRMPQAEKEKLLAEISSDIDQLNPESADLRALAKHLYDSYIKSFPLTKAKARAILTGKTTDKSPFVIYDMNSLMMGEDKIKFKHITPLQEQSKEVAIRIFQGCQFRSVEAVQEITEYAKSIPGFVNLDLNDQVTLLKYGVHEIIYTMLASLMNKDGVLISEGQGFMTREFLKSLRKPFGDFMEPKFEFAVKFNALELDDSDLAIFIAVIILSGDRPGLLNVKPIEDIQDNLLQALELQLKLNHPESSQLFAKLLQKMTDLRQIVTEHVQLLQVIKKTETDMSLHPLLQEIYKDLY
T3 sequence (Q9Y618 whole entry): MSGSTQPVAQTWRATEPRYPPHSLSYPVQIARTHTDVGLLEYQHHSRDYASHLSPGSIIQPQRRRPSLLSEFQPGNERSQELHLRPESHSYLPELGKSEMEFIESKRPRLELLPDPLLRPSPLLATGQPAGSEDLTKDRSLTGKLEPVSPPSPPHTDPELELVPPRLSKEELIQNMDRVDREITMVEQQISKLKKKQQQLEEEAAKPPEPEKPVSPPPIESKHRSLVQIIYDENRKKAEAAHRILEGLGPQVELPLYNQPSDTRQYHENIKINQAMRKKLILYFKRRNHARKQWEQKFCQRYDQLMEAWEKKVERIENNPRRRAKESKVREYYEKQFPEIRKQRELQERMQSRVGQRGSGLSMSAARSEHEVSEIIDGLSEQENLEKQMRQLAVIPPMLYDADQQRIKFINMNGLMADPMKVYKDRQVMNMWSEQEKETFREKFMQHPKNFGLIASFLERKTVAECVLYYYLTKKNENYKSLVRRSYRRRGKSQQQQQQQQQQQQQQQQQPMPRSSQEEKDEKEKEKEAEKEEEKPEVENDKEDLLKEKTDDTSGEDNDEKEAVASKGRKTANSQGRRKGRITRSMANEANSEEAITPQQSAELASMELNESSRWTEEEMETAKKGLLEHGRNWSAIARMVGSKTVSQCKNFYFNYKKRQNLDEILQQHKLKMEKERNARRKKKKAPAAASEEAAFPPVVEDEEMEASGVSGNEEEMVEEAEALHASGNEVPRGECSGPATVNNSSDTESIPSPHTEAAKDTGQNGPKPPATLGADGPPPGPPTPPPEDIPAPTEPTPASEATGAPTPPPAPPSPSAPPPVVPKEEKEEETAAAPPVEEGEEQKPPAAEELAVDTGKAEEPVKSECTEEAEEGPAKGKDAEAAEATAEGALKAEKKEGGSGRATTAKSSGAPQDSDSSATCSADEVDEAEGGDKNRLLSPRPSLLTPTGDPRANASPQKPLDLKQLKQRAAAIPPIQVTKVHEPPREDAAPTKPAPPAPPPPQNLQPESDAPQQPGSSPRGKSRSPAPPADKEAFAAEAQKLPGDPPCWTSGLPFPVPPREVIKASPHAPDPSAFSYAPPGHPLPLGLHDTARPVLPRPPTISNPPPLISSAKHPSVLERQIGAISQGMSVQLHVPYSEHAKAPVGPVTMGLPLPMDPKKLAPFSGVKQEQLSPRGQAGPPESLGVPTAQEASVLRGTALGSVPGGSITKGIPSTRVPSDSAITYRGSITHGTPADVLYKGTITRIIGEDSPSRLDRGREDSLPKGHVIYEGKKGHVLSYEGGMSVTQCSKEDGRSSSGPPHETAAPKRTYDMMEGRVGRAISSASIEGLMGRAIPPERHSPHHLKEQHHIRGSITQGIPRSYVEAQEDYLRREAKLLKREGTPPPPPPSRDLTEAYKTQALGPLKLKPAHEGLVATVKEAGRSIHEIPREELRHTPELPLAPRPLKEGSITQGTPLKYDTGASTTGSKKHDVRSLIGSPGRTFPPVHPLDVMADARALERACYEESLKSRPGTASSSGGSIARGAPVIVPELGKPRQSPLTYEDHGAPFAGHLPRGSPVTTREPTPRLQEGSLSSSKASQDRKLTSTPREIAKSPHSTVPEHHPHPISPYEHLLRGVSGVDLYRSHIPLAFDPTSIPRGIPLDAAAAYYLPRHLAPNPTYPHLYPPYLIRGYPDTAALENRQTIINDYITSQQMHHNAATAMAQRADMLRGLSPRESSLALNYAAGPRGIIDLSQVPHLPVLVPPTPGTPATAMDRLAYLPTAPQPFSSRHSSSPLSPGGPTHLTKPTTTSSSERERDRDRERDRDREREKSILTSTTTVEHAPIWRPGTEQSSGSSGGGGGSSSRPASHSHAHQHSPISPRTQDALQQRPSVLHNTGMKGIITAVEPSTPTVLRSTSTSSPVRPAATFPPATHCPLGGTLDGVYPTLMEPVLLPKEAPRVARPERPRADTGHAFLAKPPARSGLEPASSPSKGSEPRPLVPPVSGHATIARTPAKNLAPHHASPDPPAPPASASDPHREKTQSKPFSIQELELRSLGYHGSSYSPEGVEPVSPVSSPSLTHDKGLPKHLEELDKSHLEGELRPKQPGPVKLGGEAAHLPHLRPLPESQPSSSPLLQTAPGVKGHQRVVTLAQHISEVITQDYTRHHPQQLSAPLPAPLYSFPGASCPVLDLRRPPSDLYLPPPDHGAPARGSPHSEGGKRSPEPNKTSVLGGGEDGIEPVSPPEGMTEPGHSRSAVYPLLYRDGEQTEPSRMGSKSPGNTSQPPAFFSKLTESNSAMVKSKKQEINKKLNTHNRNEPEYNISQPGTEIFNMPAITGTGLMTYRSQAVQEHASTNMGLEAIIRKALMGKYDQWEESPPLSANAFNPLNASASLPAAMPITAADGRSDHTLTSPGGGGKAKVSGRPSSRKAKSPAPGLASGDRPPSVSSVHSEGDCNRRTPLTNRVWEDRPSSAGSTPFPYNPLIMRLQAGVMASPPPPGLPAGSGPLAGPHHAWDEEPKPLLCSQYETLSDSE
Sequence of Large T antigen (P03070 whole entry): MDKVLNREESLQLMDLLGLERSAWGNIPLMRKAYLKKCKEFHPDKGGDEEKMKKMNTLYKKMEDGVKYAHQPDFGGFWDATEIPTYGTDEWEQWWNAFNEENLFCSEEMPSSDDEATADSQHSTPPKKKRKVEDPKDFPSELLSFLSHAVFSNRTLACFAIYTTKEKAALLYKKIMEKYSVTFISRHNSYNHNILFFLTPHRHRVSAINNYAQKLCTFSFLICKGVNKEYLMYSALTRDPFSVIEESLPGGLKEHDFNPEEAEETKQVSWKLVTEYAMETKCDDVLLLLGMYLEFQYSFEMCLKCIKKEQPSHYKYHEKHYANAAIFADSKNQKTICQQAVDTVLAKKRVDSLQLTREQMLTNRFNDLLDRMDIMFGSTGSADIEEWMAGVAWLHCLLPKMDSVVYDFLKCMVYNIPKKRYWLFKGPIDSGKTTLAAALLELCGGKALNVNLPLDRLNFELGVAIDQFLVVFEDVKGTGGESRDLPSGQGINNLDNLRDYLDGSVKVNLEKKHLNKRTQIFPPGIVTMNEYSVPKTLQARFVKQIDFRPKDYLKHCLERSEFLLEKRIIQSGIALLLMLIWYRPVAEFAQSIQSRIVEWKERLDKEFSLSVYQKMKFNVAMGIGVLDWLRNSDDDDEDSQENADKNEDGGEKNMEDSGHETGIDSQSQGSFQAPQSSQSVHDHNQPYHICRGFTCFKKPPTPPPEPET

On to `O=C(/C=C(/c1ccc(Cl)cc1)n1cncn1)c1ccccc1`, for which the EC50 is given as > 12 µM (not active) in test [1]; > 120 µM (not active) in [2]; > 120 µM (not active) in test [3]; > 120 µM (not active) in test [4]; > 12 µM (not active) in test [5]; > 12 µM (not active) in test [6].

For `Cc1ccc(Cl)cc1NC(=O)Nn1cnnc1`, the IC50 in [7] is 1.7 µM (active); in test [8] it was > 59.6 µM (not active).

With `Cc1cccc(NC(=O)C2SC(Nc3c(C)cccc3C)=C(C(=O)N3CCOCC3)C2=N)c1` (centres undefined), the EC50 was 0.959 µM (active) in test [9]; > 195 µM (not active) in [10]; 4.32 µM (active) in test [11]; 3.32 µM (active) in [12]; > 150 µM (not active) in test [13].

For `Cc1cc(F)ccc1OC1C=CC(c2ccc3c(c2)OCO3)OC1CO` (centres undefined), the AC50 in [14] was 3.98 µM (inconclusive).

Take `Cc1cc(C)c2nc(SCC(=O)NCCC3=CCCCC3)cc(C)c2c1`: the IC50 in [15] and in test [16] was > 39.8 µM (not active) in each case.

Regarding `Cc1ccc(-c2c3c([nH]c(=S)c2C#N)CCCC3)o1`, the half-inhibitory concentration (IC50) was 1.09 µM (active) in test [17], 35.4 µM (active) in test [18], 1.72 µM (active) in [19] and 2.4 µM (active) in [20]. Moreover, the EC50 in test [21] was 6.14 µM (active).

In the case of `COc1ccc(N(C(=O)c2ccco2)S(=O)(=O)c2cc(Cl)c(Cl)cc2Cl)cc1`, the IC50 was 11 µM (not active) in [22] and > 100 µM (not active) in test [23]. For the same compound, in test [24], the CC50 was > 40 µM (active).

For the compound `O=C(CSc1ccc(Cl)cc1)N1c2ccccc2Sc2ccccc21`, the EC50 in [11] is on record as > 500 µM (not active).

On to `Cc1cc(/C=N/NC(=O)c2cccc(F)c2)c(C)n1-c1ccccc1`, for which the EC50 is 0.849 µM (active) in [1]; < 0.1 µM (inconclusive) in test [3]; > 120 µM (not active) in test [4]; 0.217 µM (active) in [5]; 2.7 µM (active) in test [6].

On to `c1ccc(-c2nc(-c3ccco3)[nH]c2-c2ccccc2)cc1`, for which the IC50 in test [25] was > 17 µM (not active).

For `COc1cc2ccc(=O)oc2c(O)c1OCC=C(C)C` [CAPENSIN], the values for the AC50 in test [14], in test [26] and in test [27] were 25.1 µM (inconclusive), 12.6 µM (inconclusive) and 31.6 µM (inconclusive), respectively.
